Data set [1] is described as follows: Stability in aqueous medium (UPLC, % nondegraded compound). The format is physicochemical. The protocol: The stability in aqueous medium of the compound (IIa) according to the invention and that of GR24 as comparative compound was evaluated in the following way.
Each compound was diluted in acetone (1 ml), then 50 μl of each solution were diluted with methanol (175 μl) and water (750 μl) so as to obtain a compound concentration of 50 μg/ml.
The aqueous solution thus obtained was incubated at 21° C. in HPLC vials.
Indanol (25 μl of a solution at 1 mg/ml in acetone) was added to each solution in order to serve as an internal standard.
The degradation of each compound over time was monitored by analysis of samples taken from the solution at various time intervals, by Ultra Performance Liquid Chromatograpy (UPLC) by means of an Acquity UPLC HSS C18 column (1.8 μm, 2.1×50 mm), eluted first of all with a solution of acetonitrile at 5% in water containing 0.1% of formic acid, for 0.5 min, then with a gradient of 5% to 100% of acetonitrile in water containing 0.1% of formic acid, for 6.5 min, and with 100% of acetonitrile containing 0.1% of formic acid for 3 min. The column was maintained at a temperature of 40° C., with a flow of 0.6 ml/min.
The compounds eluted from the column were detected with a photodiode array detector.
The relative amount of nondegraded compound in the solution was determined by comparison with the internal standard.
In a second experiment, the stability in aqueous medium of the compounds (IIa) and (IIIb) according to the invention, and that of GR24 as comparative compound, was evaluated according to the protocol described above.

In data set [2] the test system is pea mutant rms1. Description: Inhibition of branching in the pea, application directly on the axillary bud. The format is in vivo, Pisum sativum L. The note with it: for activity (length of bud/branch at node 3, 8 days after treatment at node 3): mean of 24 plants. How it is done: Generally, in the pea, the first two scales are considered to be the first two nodes, the cotyledonary node being node 0.
The rms1 mutant is an “SMS” signal biosynthesis mutant, repressing branching of the plant.
Tests for activity on the inhibition of branching were carried out in the following way.
The strigolactone-deficient rms1 (ccd8) pea mutants described in Beveridge et al., 1997, were used for the test (M3T884 line derived from the Térèse variety).
The activity of the compounds (IIa), (II′d) and (II′e) in accordance with the invention and of the comparative compound GR24 was evaluated at respective doses of 10 nM, 100 nM and 1 μM, by treatment at node 3. […]
24 plants were sown per treatment. 8 days after sowing, the treatment was carried out on the axillary bud at node 3, by application of 10 μl of each solution to be tested, directly on the bud, by means of a micropipette. The lateral outgrowths at nodes 1 and 2 were removed in order to encourage the growth of the axillary buds at the higher nodes. […]
The activity of the compounds (IIa), (IIb), (IIc), (II′d), (II′e) and (II′f) in accordance with the invention was evaluated at respective doses of 100 nM and 1 μM, by treatment at node 3.
For this, solutions containing each compound to be tested, in 1% acetone, 4% propylene glycol 1450 and 50% ethanol, were used.
The activity of the compounds (IIa), (IIIa), (IIIb) and (IIIc) in accordance with the invention, and also of GR24 as comparative compound, was evaluated at respective doses of 100 nM and 1 μM, by treatment at node 3, according to the protocol described above with reference to experiment 2.
A sample consisting only of the solvent, and without active compound, was also tested as negative control, termed “CTL 0”.
In this experiment, the activity of the compound (IIIa) in accordance with the invention, and also of GR24 as comparative compound, was evaluated at respective doses of 1 nM, 10 nM, 100 nM and 1 μM, by treatment at node 3, according to the protocol described above with reference to experiment 2, for doses of 10 nM, 100 nM and 1 μM of compounds.
A sample consisting only of the solvent, and without active compound (“CTL 0”) was also tested as a negative control. A nontreated (“NT”) control was also carried out.
A dose-response test for evaluating the activity of the compounds by deposition at node 3 was carried out according to the protocol described above with reference to experiment 2, for the compound in accordance with the invention (IIa) and for the comparative compounds GR24, Comp. 3 and Comp. 4. Concentrations of 10 nM, 100 nM and 1 μM were tested.
A sample consisting only of the solvent, and without active compound (“CTL 0”), was also tested as a negative control. A nontreated (“NT”) control was also carried out.
A dose-response test for evaluating the activity of the compounds by deposition at node 3 was carried out according to the protocol described above with reference to experiment 2, for the compound in accordance with the invention (IIa) and for the comparative compounds GR24, Comp. 5 and Comp. 6. Concentrations of 10 nM and 100 nM were tested. […]
The sprouting of the axillary buds at node 4 was measured 8 days after the treatment by means of a digital sliding caliper.
The activity of the compound (IIIa) in accordance with the invention on bud growth at node 3 was evaluated at a dose of 1000 nM by treatment at node 3. The GR24 compound was tested at the same concentration as comparative compound. […]

The subject of data set [3] is pea mutant rms1. Described as above. The format is in vivo, Pisum sativum L. The note with it: Experiment 7, FIG. 9; 0.1 nM, 1 nM, 10 nM and 100 nM.

For the compound `CC1=C(C)C(Sc2ccc(Cl)cc2)OC1=O` (centres unmarked) [Compound (IIa), 5-((4-chlorophenyl)thio)-3,4-dimethylfuran-2(5H)-one], the “chemical stability in aqueous solution (% of nondegraded compound as a function of incubation time)” value in data set [1] (50 μg/ml of compound in methanol/water: 1/4, pH 6.7, 21° C., FIG. 1) is “very high chemical stability in aqueous solution, much higher than that of GR24”; in data set [1] (second experiment, longer incubation times, 50 μg/ml in methanol/water: 1/4, pH 6.7, 21° C., FIG. 2), “very high chemical stability in aqueous solution, much higher than that of GR24”. In addition, the “inhibitory activity on bud growth (length of bud/branch at node 3, 8 days after treatment at node 3)” value is “inhibitory activity on bud growth which is greater than that of the comparative compound GR24” with pea mutant rms1 [2] (Experiment 1, FIG. 3, 10 nM, 100 nM, 1 μM, at the highest concentrations); “most active” with pea mutant rms1 [2] (Experiment 2, FIG. 4, 100 nM and 1 μM). In addition, the “bud growth inhibition (length of bud/branch at node 3, 8 days after treatment at node 3)” value with pea mutant rms1 [2] (Experiment 3, FIG. 5, 100 nM and 1 μM) is on record as “activity similar to that of the comparative compound GR24”. Moreover, the “activity (length of bud/branch at node 3, 8 days after treatment at node 3)” value was “activity which is greater than the comparative compounds provided by the prior art, Comp. 3 and Comp. 4, this being at all the doses tested” in the data set with pea mutant rms1 [2] (Experiment 5, FIG. 7, 10 nM, 100 nM and 1 μM); “activity which is greater than the comparative compounds provided by the prior art, Comp. 5 and Comp. 6, this being at all the doses tested” in the data set on pea mutant rms1 [2] (Experiment 6, FIG. 8, 10 nM and 100 nM). The “inhibitory activity on bud growth at node 4 (length of bud/branch 8 days after treatment at node 4)” value in the data set on pea mutant rms1 [3] was “equivalent to that of GR24 at the strongest concentrations, and slightly better at the lowest concentration of 0.1 nM”.

The values are drawn from patent US9532569B2 (INSTITUT NATIONAL DE LA RECHERCHE AGRONOMIQUE, priority 2012, dated 2017).
